In brackets after ≈: the same amount, converted by molar mass.

Here are results for two molecules from patent publication US5607926A, “Cephalosporin antibiotics” (Microcide Pharmaceuticals, Inc., priority 1995, dated 1997).

In one assay the test system is S. aureus ATCC 29213. In words: In vitro antibacterial evaluation, MIC by agar dilution, S. aureus ATCC 29213. To be noted: Staphylococcus aureus, ATCC29213; S. aureus ATCC 29213; read-out: MIC. The assay is classed as cell-based. The procedure, abridged: (§1)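 In this standardized agar dilution format, compound was dissolved in PBS pH 7.2, with Tween 20 or DMSO as needed, and mixed into molten Mueller-Hinton agar to final levels of 128 down to ≤0.25 μg/mL. About 10^4 cfu were spotted per isolate, and MIC was recorded after 16-20 h at 35°-36° C.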
(In agar dilution the substance is mixed into plates at graded concentrations.)

A further assay concerns S. aureus ATCC 25923. In words: In vitro antibacterial evaluation, MIC by agar dilution, S. aureus ATCC 25923. The assay is classed as cell-based. To be noted: Staphylococcus aureus, ATCC25923; S. aureus ATCC 25923; read-out: MIC. The procedure, abridged:
as §1

Assay [1] deals with S. epidermidis ATCC 31432. In words: In vitro antibacterial evaluation, MIC by agar dilution, S. epidermidis ATCC 31432. The assay is classed as cell-based. As to conditions: Staphylococcus epidermidis, ATCC31432; S. epidermidis ATCC 31432; read-out: MIC. The procedure, abridged:
as §1

Assay [2] relates to S. aureus Col (Meth^R)(lac^-). In words: In vitro antibacterial evaluation, MIC by agar dilution, S. aureus Col. It counts as cell-based. As to conditions: S. aureus Col. The method, then: (§2) The compounds of the invention were evaluated against several β-lactamresistant bacteria strains by determining the minimum inhibitory concentration (MIC, μg/ml) of each compound with respect to each strain. The MIC, the lowest concentration of antibiotic which inhibits growth of the test organism, was determined by the agar dilution method.
(§3) To determine the MIC for bacterial isolates, the test compound was incorporated in a series of two-fold dilutions into liquified Mueller-Hinton agar. Upon solidification, a number of different bacterial strains were spot inoculated with a replicating device onto the agar surface. […] The procedures used in these studies have been standardized by the National Committee for Clinical Laboratory Standards (NCCLS), as per the NCCLS publication entitled METHODS FOR DILUTION ANTIMICROBIAL SUSCEPTIBILITY TESTS (1991), which is incorporated herein by reference.
(§4) Aliquots of antimicrobial agents were prepared in phosphate buffered saline (PBS) at pH 7.2. Tween 20 or DMSO was used as a solubilizing vehicle as needed. Standard methods of vortexing, sonicating and gentle heat were used to facilitate solubilizing the test agent. Typically, the concentration of the stock solution was 10× that of the highest drug concentration tested. A 1.28 mg/mL stock solution was used with a subsequent highest working concentration of 128 μg/mL. Serial two-fold dilutions were done through ≤0.25 μg/mL. Each drug level was tested in duplicate. Two-fold drug dilutions were done in sterile 50 mL tubes with a final drug volume of 5 mL. Upon the addition of 45 mL of molten agar, a 10-fold dilution resulted. Two, 25 mL. plates were then poured into 15×150 mm square Petri plates with grids and allowed to harden.
(§5) A control plate with a reference drug, either cefotaxime, vancomycin or imipenem, was used as the positive growth control. Stock concentrations of reference antibiotics were prepared and frozen at -80° C. Upon preparation, the control plates were sealed and stored in the refrigerator for up to 1 week prior to use; however, imipenem control plates had to be prepared just prior to use. All test plates were used within 24 hours of preparation.
(§6) Satisfactory results were obtained where the inoculum contained about 10^4 colony forming units (cfu) ±0.5 logs. Starting with pure cultures of the test isolates on agar plates, a few isolated colonies were transferred to a tube of nutrient broth and allowed to grow 4-6 hours at 35°-36° C. to reach log-phase growth. Dropwise addition of the broth culture to PBS was done to match a 0.5 McFarland turbidity standard equal to 10^8 cfu/mL. This was further diluted ten-fold in PBS to reach a working inoculum concentration of 10^7 cfu/mL. When 1 μL of the working inoculum was applied to the agar surface a concentration of about 10^4 cfu per spot was obtained.
(§7) Disposable sterile 1 μL loops were used to inoculate test plates, with each isolate in a designated grid on the agar plate. An alternate method of inoculation involved the use of a replica plater, a device with 48 steel pins allowing the simultaneous inoculation of multiple isolates. After the spots had dried, the plates were incubated at 35°-36° C. for 16-20 hours. Endpoints were assessed as the minimum inhibitory concentration (MIC) of antimicrobial agent.
The novel agents of this invention are notable for their enhanced activity against S. aureus Col and Enterococci (E. faecium and E. faecalis). […]

In assay [3] the test system is S. aureus Col8A (Meth^S)(lac^-). In words: In vitro antibacterial evaluation, MIC by agar dilution, S. aureus Col8A. It counts as cell-based. To be noted: Staphylococcus aureus. An outline of the steps:
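Log-phase isolates were spot-inoculated at about 10^4 cfu onto Mueller-Hinton agar carrying duplicate two-fold compound levels, 128 μg/mL to ≤0.25 μg/mL, following NCCLS (1991). Plates were read after 16-20 h at 35°-36° C. The lowest growth-inhibiting concentration gave the MIC (μg/ml).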

For the next assay, the system named is E. faecalis ATCC 29212. In words: In vitro antibacterial evaluation, MIC by agar dilution, E. faecalis ATCC 29212. The assay is classed as cell-based. To be noted: Enterococcus faecalis, ATCC29212; E. faecalis ATCC 29212; read-out: MIC. The procedure, abridged:
as §1

For the next assay, the system named is E. coli ATCC 25922. In words: In vitro antibacterial evaluation, MIC by agar dilution, E. coli ATCC 25922. To be noted: Escherichia coli, ATCC25922, read-out: MIC. The assay is classed as cell-based. The procedure, abridged:
as §1

In another assay the test system is P. aeruginosa ATCC 27853. Kind of assay: In vitro antibacterial evaluation, MIC by agar dilution, P. aeruginosa ATCC 27853. The assay is classed as cell-based. To be noted: Pseudomonas aeruginosa, ATCC27853, read-out: MIC. An outline of the steps:
as §1

The subject of assay [4] is X. maltophilia ATCC 13637. Kind of assay: In vitro antibacterial evaluation, MIC by agar dilution, X. maltophilia ATCC 13637. The assay is classed as cell-based. As to conditions: Stenotrophomonas maltophilia, ATCC13637. The method, then:
as §2, §3, §4, §5, §6, §7

In assay [5] the test system is Enterococci (E. faecium and E. faecalis). Kind of assay: In vitro antibacterial evaluation, Enterococci (E. faecium and E. faecalis). It counts as cell-based. The method, then:
as §2, §3
Aliquots of antimicrobial agents were prepared in phosphate buffered saline (PBS) at pH 7.2. Tween 20 or DMSO was used as a solubilizing vehicle as needed. Standard methods of vortexing, sonicating and gentle heat were used to facilitate solubilizing the test agent. […]
Disposable sterile 1 μL loops were used to inoculate test plates, with each isolate in a designated grid on the agar plate. […] Endpoints were assessed as the minimum inhibitory concentration (MIC) of antimicrobial agent. […]

The subject of another assay is MRSA strains. As to conditions: background art; cited from earlier work.

For orientation: MIC means the least concentration at which growth counts as inhibited. Regarding `O=C(Cc1ccccc1)N[C@@H]1C(=O)N2C(C(=O)O)=C(SCc3ccc(-c4ccccc4)cc3)CS[C@H]12` [Cmpd 12, (7R)-7-[(Phenylacetyl)amino]-3-(4-biphenylmethylthio)-3-cephem-4-carboxylic acid], the MIC with S. aureus ATCC 29213 was below 0.06 µg/mL; in the assay on S. aureus ATCC 25923, below 0.06 µg/mL; in assay [1] it was below 0.06 µg/mL; in [3], below 0.06 µg/mL; in the assay on E. faecalis ATCC 29212, 4 µg/mL (≈ 7.74 µM); in the assay with E. coli ATCC 25922 it was above 32 µg/mL. The MIC (with P. aeruginosa ATCC 27853; in assay [4]) was above 32 µg/mL in each case. For the same molecule, the “activity against S. aureus Col” value in [2] is on record as “lacking activity against S. aureus Col”. The “activity against enterococci” value in assay [5] is reported as “potent activity against enterococci”.

As for `C[C@@H](O)[C@H]1C(=O)N2C(C(=O)O)=C(SCCN=CN)C[C@H]12` [imipenem], in the assay with MRSA strains, the “activity against MRSA strains” value is recorded as “active against a few MRSA strains”.
